Test results: the supplement of paper PMC6045584
± gives the standard deviation of the averaged measurements.

Experiments:
[1] = compound: Oc1nc(-c2ccc(C(F)(F)F)cc2)nc2c1CSCC2 [XAV-939]; assay: surviving fraction relative to DMSO-only wells; higher = less growth inhibition; details: exposure time: 5 days
Procedure, shortened: (§1)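 Viability was determined by CellTiter-Glo luminescence, expressed as surviving fraction normalised to the median of DMSO-only wells. The cells were log-phase tumour cell lines seeded at 250–500 per well in 384-well plates and, after 24 hours, exposed continuously for five days to inhibitors at 0.5, 1, 5, 10, 50, 100, 500 and 1000 nM. Three screens per line were run, keeping only lines with replicate Pearson r >0.7 and median Z' >0.3.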

[2] = compound: CN1CCN(c2nc(C3=C(c4c[nH]c5ccccc45)C(=O)NC3=O)c3ccccc3n2)CC1 [SOTRASTAURIN/AEB071]; assay: as above; details: exposure time: 5 days
Procedure, shortened: as §1

Row | Test System | surviving fraction ([1]; 0.5 nM) | surviving fraction ([1]; 1 nM) | surviving fraction ([1]; 5 nM) | surviving fraction ([1]; 10 nM) | surviving fraction ([1]; 50 nM) | surviving fraction ([1]; 100 nM) | surviving fraction ([1]; 500 nM) | surviving fraction ([1]; 1000 nM) | surviving fraction ([2]; 0.5 nM) | surviving fraction ([2]; 1 nM) | surviving fraction ([2]; 5 nM) | surviving fraction ([2]; 10 nM) | surviving fraction ([2]; 50 nM) | surviving fraction ([2]; 100 nM) | surviving fraction ([2]; 500 nM) | surviving fraction ([2]; 1000 nM)
1 | LM7 BONE | 0.964 ± 0.078 | 1.03 ± 0.062 | 1.05 ± 0.075 | 1.131 ± 0.011 | 1.08 ± 0.11 | 1.08 ± 0.048 | 0.915 ± 0.068 | 0.877 ± 0.045 | 1.03 ± 0.077 | 0.945 ± 0.024 | 1.01 ± 0.075 | 1.05 ± 0.062 | 0.889 ± 0.051 | 0.907 ± 0.049 | 0.803 ± 0.035 | 0.811 ± 0.12
2 | MFM223 BREAST | 1.18 ± 0.037 | 1.11 ± 0.062 | 1.12 ± 0.023 | 1.112 ± 0.0058 | 0.913 ± 0.034 | 1.08 ± 0.043 | 0.891 ± 0.059 | 0.685 ± 0.033 | 1.12 ± 0.12 | 1.18 ± 0.094 | 1.07 ± 0.084 | 1.12 ± 0.076 | 0.849 ± 0.18 | 0.716 ± 0.081 | 0.719 ± 0.038 | 0.711 ± 0.035
3 | MDAMB453 BREAST | 0.991 ± 0.053 | 1.02 ± 0.034 | 1.1 ± 0.088 | 1.08 ± 0.043 | 1.06 ± 0.04 | 1.12 ± 0.074 | 1.02 ± 0.069 | 0.961 ± 0.049 | 0.996 ± 0.053 | 0.971 ± 0.081 | 1.01 ± 0.058 | 1 ± 0.076 | 0.915 ± 0.048 | 0.969 ± 0.1 | 0.951 ± 0.014 | 0.895 ± 0.05
4 | JIMT1 BREAST | 1 ± 0.013 | 1.03 ± 0.027 | 0.9983 ± 0.008 | 0.995 ± 0.031 | 1 ± 0.05 | 1.04 ± 0.025 | 0.934 ± 0.032 | 0.943 ± 0.0033 | 0.958 ± 0.039 | 0.941 ± 0.017 | 0.98 ± 0.033 | 0.96 ± 0.02 | 0.975 ± 0.038 | 0.956 ± 0.047 | 0.987 ± 0.037 | 0.992 ± 0.022
5 | NOS1 BONE | 1.11 ± 0.086 | 1.06 ± 0.045 | 1.29 ± 0.26 | 1.14 ± 0.074 | 1.17 ± 0.083 | 1.06 ± 0.096 | 0.783 ± 0.1 | 0.778 ± 0.065 | 1.05 ± 0.087 | 1 ± 0.084 | 1.14 ± 0.12 | 1.08 ± 0.071 | 0.974 ± 0.095 | 1 ± 0.037 | 0.899 ± 0.035 | 1 ± 0.037
6 | HOSMNG BONE | 0.922 ± 0.14 | 1.01 ± 0.11 | 0.947 ± 0.077 | 0.934 ± 0.1 | 0.948 ± 0.17 | 0.944 ± 0.089 | 0.934 ± 0.069 | 1.06 ± 0.094 | 0.939 ± 0.079 | 0.932 ± 0.025 | 0.994 ± 0.035 | 0.947 ± 0.047 | 1.05 ± 0.12 | 0.963 ± 0.028 | 1.11 ± 0.061 | 1.01 ± 0.05
7 | BT549 BREAST | 1.16 ± 0.085 | 1.19 ± 0.079 | 1.03 ± 0.077 | 1.16 ± 0.082 | 1.18 ± 0.044 | 1.08 ± 0.091 | 0.884 ± 0.014 | 0.872 ± 0.091 | 0.889 ± 0.093 | 1.06 ± 0.068 | 1.01 ± 0.19 | 1.16 ± 0.2 | 0.904 ± 0.095 | 0.897 ± 0.035 | 0.919 ± 0.12 | 1.07 ± 0.16
8 | CAL120 BREAST | 0.984 ± 0.027 | 1.02 ± 0.013 | 1.01 ± 0.019 | 0.969 ± 0.018 | 1.01 ± 0.021 | 1.011 ± 0.0096 | 0.951 ± 0.012 | 0.9582 ± 0.0029 | 1.03 ± 0.042 | 1.01 ± 0.054 | 1.01 ± 0.03 | 1.02 ± 0.035 | 0.985 ± 0.051 | 0.955 ± 0.035 | 0.976 ± 0.046 | 0.981 ± 0.009
9 | VP229 BREAST | 1.3 ± 0.093 | 1.34 ± 0.056 | 1.37 ± 0.14 | 1.23 ± 0.045 | 1.3 ± 0.075 | 1.41 ± 0.22 | 1.33 ± 0.26 | 1.3 ± 0.075 | 1.07 ± 0.054 | 1.23 ± 0.1 | 0.995 ± 0.023 | 1.04 ± 0.13 | 0.952 ± 0.084 | 0.812 ± 0.059 | 0.956 ± 0.13 | 0.856 ± 0.19
10 | HT1080 SOFT TISSUE | 1.05 ± 0.018 | 1.04 ± 0.05 | 1.03 ± 0.024 | 1.02 ± 0.023 | 0.971 ± 0.0036 | 0.872 ± 0.0099 | 0.579 ± 0.0091 | 0.476 ± 0.0083 | 1.07 ± 0.028 | 1.08 ± 0.024 | 1.053 ± 0.0085 | 1.05 ± 0.021 | 1.03 ± 0.025 | 1.04 ± 0.016 | 1.07 ± 0.019 | 1.16 ± 0.063
11 | ZR751 BREAST | 0.873 ± 0.048 | 0.925 ± 0.18 | 0.869 ± 0.092 | 0.987 ± 0.03 | 0.683 ± 0.082 | 0.762 ± 0.15 | 0.69 ± 0.052 | 0.685 ± 0.036 | 1.19 ± 0.11 | 1.3 ± 0.22 | 1.1 ± 0.15 | 1.16 ± 0.15 | 1.07 ± 0.092 | 1.1 ± 0.039 | 0.983 ± 0.15 | 1 ± 0.12
12 | HCC202 BREAST | 1.4 ± 0.094 | 1.23 ± 0.2 | 1.17 ± 0.094 | 0.972 ± 0.14 | 1.12 ± 0.18 | 0.905 ± 0.077 | 1.04 ± 0.2 | 0.953 ± 0.065 | 1.17 ± 0.19 | 1.354 ± 0.0028 | 1.39 ± 0.86 | 1.05 ± 0.41 | 0.774 ± 0.33 | 0.88 ± 0.36 | 1.19 ± 0.05 | 1.123 ± 0.005
13 | CAL51 BREAST | 0.967 ± 0.032 | 1.03 ± 0.046 | 1.02 ± 0.025 | 0.992 ± 0.017 | 1.01 ± 0.049 | 1.01 ± 0.023 | 0.846 ± 0.033 | 0.799 ± 0.089 | 0.993 ± 0.025 | 0.969 ± 0.071 | 0.933 ± 0.031 | 0.962 ± 0.05 | 0.968 ± 0.077 | 1.04 ± 0.04 | 0.938 ± 0.077 | 0.824 ± 0.05
14 | SG28 HEADNECK | 1.01 ± 0.11 | 1.11 ± 0.095 | 0.981 ± 0.083 | 0.967 ± 0.11 | 1.02 ± 0.14 | 0.958 ± 0.07 | 0.912 ± 0.075 | 0.91 ± 0.058 | 1.116 ± 0.011 | 1.107 ± 0.0035 | 0.956 ± 0.12 | 1.024 ± 0.0085 | 0.821 ± 0.039 | 0.79 ± 0.14 | 0.8065 ± 0.0078 | 0.843 ± 0.088
15 | SG31 HEADNECK | 1.02 ± 0.12 | 1.13 ± 0.1 | 1.12 ± 0.28 | 1.02 ± 0.046 | 0.985 ± 0.021 | 0.853 ± 0.19 | 0.745 ± 0.055 | 0.747 ± 0.037 | 1.28 ± 0.26 | 1 ± 0.12 | 1.25 ± 0.26 | 1.12 ± 0.23 | 0.935 ± 0.12 | 1.03 ± 0.12 | 1.11 ± 0.12 | 1.14 ± 0.032
16 | SAOS2 BONE | 1.16 ± 0.027 | 1.15 ± 0.041 | 1.21 ± 0.022 | 1.28 ± 0.05 | 1.26 ± 0.034 | 1.25 ± 0.051 | 1.14 ± 0.046 | 1.07 ± 0.072 | 1.11 ± 0.024 | 1.06 ± 0.082 | 1.14 ± 0.054 | 1.12 ± 0.023 | 0.9 ± 0.069 | 0.836 ± 0.066 | 0.831 ± 0.079 | 0.839 ± 0.14
17 | SCC36 HEADNECK | 1.07 ± 0.11 | 0.964 ± 0.16 | 1.19 ± 0.045 | 1.06 ± 0.082 | 1.11 ± 0.032 | 1.1 ± 0.077 | 0.825 ± 0.029 | 0.711 ± 0.022 | 1.03 ± 0.063 | 0.903 ± 0.069 | 1.03 ± 0.068 | 1.027 ± 0.0046 | 0.843 ± 0.039 | 0.77 ± 0.033 | 0.838 ± 0.033 | 0.77 ± 0.048
18 | DU4475 BREAST | 1.02 ± 0.28 | 0.857 ± 0.17 | 0.884 ± 0.18 | 1.05 ± 0.12 | 1.07 ± 0.17 | 1.16 ± 0.18 | 1.15 ± 0.33 | 1.1 ± 0.25 | 1.02 ± 0.16 | 1.2 ± 0.081 | 1.05 ± 0.038 | 0.986 ± 0.027 | 0.989 ± 0.068 | 1.08 ± 0.068 | 0.901 ± 0.24 | 0.844 ± 0.038
19 | HOS BONE | 1.01 ± 0.028 | 1.05 ± 0.016 | 1.02 ± 0.013 | 1.04 ± 0.0066 | 1.04 ± 0.029 | 1.04 ± 0.011 | 0.996 ± 0.02 | 1.05 ± 0.065 | 1.021 ± 0.0061 | 1.01 ± 0.014 | 1.04 ± 0.023 | 1.014 ± 0.008 | 1.05 ± 0.014 | 1.03 ± 0.013 | 1.02 ± 0.018 | 0.974 ± 0.016
